From patent US5773573A, “HIV peptides” (priority 1994, dated 1998) come the findings set out here.

Data set [1] has as its system autologous PHA T cell blasts. Nature of the data set: Cytotoxicity Assay (51Cr release) of peptide-induced short-term PBMC cultures against autologous targets. The data set is classed as cell-based, human. The note with it: for autoreactive response (autocytotoxic, 51Cr release): peptide stimulant 100 ng/ml 4-8 hours. As for the experimental part:
(§1) Peripheral Blood Mononuclear Cells (PBMC) were isolated from 8 HIV seronegative individuals who volunteered as donors for the study. […] PBMC (10^6 /ml) from the each of the donors were incubated in the presence of VHP1 or control peptide at 100 ng/ml for 4-8 hours to produce Effector Cells. Irradiated autologous PBMC without VHP1 stimulation served as controls.
(§2) VHP1 induced short-term cultures of autoreactive T cells (Effector Cells) were assayed for cytotoxic activity against autologous PHA T cell blasts stimulated with 5 μg/ml PHA for 4-5 days at a concentration of 10^4 cells/well in the absence of either control or VHP1 peptide (Target Cells). 1-2×10^6 Target Cells were labeled with […] of ^51 Cr in 0.3 ml of medium for 1 hour at 37° C. Target cells were washed 3× in medium, diluted to 10^5 or 10^4 cells/ml and […] of cell suspension added to each well of a V-bottomed 96-well microtitre plate. Effector Cells were added to the Target Cells at Effector:Target (E:T) ratios from 50:1 to 6.25:1. Cultures were incubated for 4 hours at 37° C. and supernatants were harvested and counted for ^51 Cr release. Percent cytotoxicity is calculated using the formula : […] (experimental release-spontaneous release)/(maximum release-spontaneous release). Spontaneous release and maximum release were determined by incubating target cells in medium or 1.0% Triton ×-100 respectively. Results where calculated as means ± Standard Deviations (SD) of triplicate cultures and a positive result was scored above 20% specific lysis. The cytotoxicity assay was repeated for allogeneic Target cells from donors (Target-1, Target-2 and Target-3) and the percent specific lysis scored at an Effector:Target ratio of 10:1.

The subject of data set [2] is allogeneic PHA activated T cell Targets. Description: Cytotoxicity Assay (51Cr release) of VHP1-induced Effectors against allogeneic targets. It is filed as cell-based, human. On the procedure:
as §1, §2
To establish the MHC specificity of the cytotoxic cells stimulated by VHP1, further Cytotoxicity Assays with allogeneic PHA activated T cell Targets with different MHC phenotypes were then performed. The Effectors were derived from short term cultures of PBMC from donors of either MHC B8 or B35 (trigger+) incubated with VHP1 for 4-8 hours. The Target Cells were from donors with either B8 B35 (trigger+) or B27(Trigger-) MHC phenotype. Target PBMC incubated with radioactive ^51 Cr for one hour before being mixed with Effectors. Effector Cells were mixed with radiolabelled Target Cells and incubated for 4 hours and lysis was measured by release of radioactive ^51 Cr.
The measurement of percent specific lysis by ^51 Cr release at an Effector to Target Ratio of 10:1.

Setting [3] is: short term cultures of PBMC from donors positive for B8 or B35 (trigger+).

Residues, ends and D or L forms follow the SMILES beside them.

For `CC(C)C[C@H](N)C(=O)N[C@@H](CCC(=O)O)C(=O)N[C@@H](CC(=O)O)C(=O)N[C@@H](CCCNC(=N)N)C(=O)N[C@@H](CCCNC(=N)N)C(=O)N[C@@H](C)C(=O)N[C@@H](C)C(=O)N[C@H](C(=O)N[C@@H](CC(=O)O)C(=O)N[C@H](C(=O)N[C@H](C(=O)N[C@@H](CS)C(=O)N[C@@H](CCCNC(=N)N)C(=O)N[C@@H](C)C(=O)O)C(C)C)[C@@H](C)O)C(C)C` [Control, NH2 LeuGluAspArgArgAlaAlaValAspThrValCysArgAlaCOOH] (H-LEDRRAAVDTVCRA-OH), the “autoreactive response (autocytotoxic, 51Cr release)” value (“autoreactive response” below) in data set [1] (PBMC of donor eight (Trigger+)), in data set [1] (PBMC of donor five (Trigger+)), in data set [1] (PBMC of donor four (Trigger-)), in data set [1] (PBMC of donor nine (Trigger-)), in data set [1] (PBMC of donor one (Trigger-)) and in data set [1] (PBMC of donor seven (Trigger+)) was “- (a positive result was scored above 20% specific lysis)” throughout. Also, the “autoreactive response” value in data set [1] (PBMC of donor six (Trigger+)) and in data set [1] (PBMC of donor two (Trigger-)) was “- (a positive result was scored above 20% specific lysis)” in each case. The “autocytotoxic responses against activated autologous T cell targets” value in data set [1] (setting [3]) was “did not produce significant levels”.

As for `CC(C)[C@H](NC(=O)[C@H](CCCNC(=N)N)NC(=O)[C@H](CCCNC(=N)N)NC(=O)[C@H](CCCCN)NC(=O)[C@H](C)NC(=O)[C@H](CCCCN)NC(=O)[C@@H](N)[C@@H](C)O)C(=O)N[C@H](C(=O)N[C@@H](CCC(=O)O)C(=O)N[C@@H](CCCNC(=N)N)C(=O)N[C@@H](CCC(=O)O)C(=O)N[C@@H](CCCCN)C(=O)N[C@@H](CCCNC(=N)N)C(=O)O)C(C)C` [VHP1, NH2 ThrLysAlaLysArgArgValValGluArgGluLysArgCOOH] (H-TKAKRRVVEREKR-OH), the “autoreactive response” value in data set [1] (PBMC of donor eight (Trigger+)) is listed as “+ (a positive result was scored above 20% specific lysis)”; in data set [1] (PBMC of donor five (Trigger+)), “+ (a positive result was scored above 20% specific lysis)”; in data set [1] (PBMC of donor four (Trigger-)), “- (a positive result was scored above 20% specific lysis)”; in data set [1] (PBMC of donor nine (Trigger-)), “- (a positive result was scored above 20% specific lysis)”; in data set [1] (PBMC of donor one (Trigger-)), “- (a positive result was scored above 20% specific lysis)”; in data set [1] (PBMC of donor seven (Trigger+)), “+ (a positive result was scored above 20% specific lysis)”. Further, the “autoreactive response” value in data set [1] (PBMC of donor six (Trigger+)) is listed as “+ (a positive result was scored above 20% specific lysis)”; in data set [1] (PBMC of donor two (Trigger-)), “- (a positive result was scored above 20% specific lysis)”. Further, the results for the “autocytotoxic responses against activated autologous T cell targets” value in data set [1] (short term cultures of PBMC from donors negative for B8 or B35 (trigger-)) and in data set [1] (setting [3]) were “did not produce significant levels” and “significant autocytoxic responses”, respectively. The “percent specific lysis by 51Cr release” value in data set [2] (VHP1-induced Effectors JMC-B8, Target1-B8, Effector to Target Ratio 10:1) came out at 30%; in data set [2] (VHP1-induced Effectors JMC-B8, Target2-B35, Effector to Target Ratio 10:1), 30%; in data set [2] (VHP1-induced Effectors JMC-B8, Target3-B27, Effector to Target Ratio 10:1), 7%; in data set [2] (VHP1-induced Effectors SW-B35, Target1-B8, Effector to Target Ratio 10:1), 9%; in data set [2] (VHP1-induced Effectors SW-B35, Target2-B35, Effector to Target Ratio 10:1), 10%; in data set [2] (VHP1-induced Effectors SW-B35, Target3-B27, Effector to Target Ratio 10:1), 2%. Moreover, the “percent specific lysis by 51Cr release” value was found to be 30% in data set [2] (VHP1-induced Effectors WW-B35, Target1-B8, Effector to Target Ratio 10:1); 32% in data set [2] (VHP1-induced Effectors WW-B35, Target2-B35, Effector to Target Ratio 10:1); 14% in data set [2] (VHP1-induced Effectors WW-B35, Target3-B27, Effector to Target Ratio 10:1).
